Each structure is given as a SMILES string. Several values for one entry are separate records, joined by “and”; a condition that tells them apart may be missing. Equal values may be shown once.

In general, IC50 refers to the concentration needed to halve the response being measured. As a reminder, the IC90 is the point of the concentration-response curve where the effect stands at 90%.

The target in experiment [1] is T1, HCV NS3/4A 1b protease wild type (Hepatitis C virus genotype 1b, UniProt Q9WMX2).
T1 construct: 10× stocks of NS3/4A protease enzyme from Bioenza (Mountain View, Calif.); purchased Bioenza (Mountain View, Calif.)
The experiment is described as follows: HCV protease FRET assay (IC50), Example 15. Type of experiment: biochemical. The procedure:
(§1) The following protocol was used to generate IC50 values as depicted for compound 239 in Table 4, above. The protocol is a modified FRET-based assay (v—02) from In Vitro Resistance Studies of HCV Serine Protease Inhibitors, 2004, JBC, vol. 279, No. 17, pp 17508-17514.
(§2) 10× stocks of NS3/4A protease enzyme from Bioenza (Mountain View, Calif.) and 1.13× 5-FAM/QXL™520 FRET peptide substrate from Anaspec (San Jose, Calif.) were prepared in 50 mM HEPES, pH 7.8, 100 mM NaCl, 5 mM DTT and 20% glycerol. 5 μL of each enzyme were pre-incubated in a Corning (#3573) 384-well, black, non-treated microtiter plate (Corning, N.Y.) for 30 min at 25° C. with a 0.5 μL volume of 50% DMSO and serially diluted compounds prepared in 50% DMSO. Protease reactions were started with the addition of 45 μL of the FRET substrate and monitored for 120 minutes at λex487/λem514 through Quad^4 monochromoters in a Synergy^4 plate reader from BioTek (Winooski, Vt.). At the conclusion of each assay, progress curves from each well were examined for linear reaction kinetics and fit statistics (R^2, absolute sum of squares). Initial velocity (0 minutes to 30+ minutes) from each reaction was determined from the slope of a plot of relative fluorescence units vs time (minutes) and then plotted against inhibitor concentration to estimate IC50 from log [Inhibitor] vs Response, Variable Slope model in GraphPad Prism from GraphPad Software (San Diego, Calif.).
(§3) The compound numbers correspond to the compound numbers in Table 3. […] ;

Experiment [2] has as its target T2, HCV NS3/4A 1b protease A156T (Hepatitis C virus genotype 1b, UniProt Q9WMX2, A1182T).
T2 construct: 10× stocks of NS3/4A protease enzyme from Bioenza (Mountain View, Calif.); purchased Bioenza (Mountain View, Calif.)
The experiment is described as follows: HCV protease FRET assay (IC50), Example 15. The conditions noted are these: Inhibition (IC50), HCV A156T, FRET, 30 min pre-incubation at 25° C. Type of experiment: biochemical. Here is the method:
as §1, §2, §3

For experiment [3], the target named is T3, HCV NS3/4A 1b protease D168A (Hepatitis C virus genotype 1b, UniProt Q9WMX2, D1194A).
T3 construct: 10× stocks of NS3/4A protease enzyme from Bioenza (Mountain View, Calif.); purchased Bioenza (Mountain View, Calif.)
The experiment is described as follows: HCV protease FRET assay (IC50), Example 15. Type of experiment: biochemical. The conditions noted are these: Inhibition (IC50), HCV D168A, FRET, 30 min pre-incubation at 25° C. The procedure:
as §1, §2, §3

Experiment [4] concerns the target T1, HCV NS3/4A 1b protease wild type. As to the kind of experiment: HCV protease FRET assay (IC50_APP), Example 16. Format: biochemical.
The target in experiment [5] is T2, HCV NS3/4A 1b protease A156T. The experiment is described as follows: HCV protease FRET assay (IC50_APP), Example 16. Type of experiment: biochemical.
Experiment [6] has as its target T3, HCV NS3/4A 1b protease D168A. The experiment is described as follows: HCV protease FRET assay (IC50_APP), Example 16. Format: biochemical.
For the next experiment, the target named is T4, HCV NS3/4A wild type (Hepatitis C virus genotype 1b, UniProt Q9WMX2).
T4 construct: HCV NS3/4A wild type (wt) was incubated for 1 hr at a 10× fold access of test compound to protein; purchased Bioenza, Calif
As to the kind of experiment: Mass spectrometric analysis of covalent modification (MALDI-TOF). Type of experiment: binding. The note with it: 10× excess of test compound to protein; MALDI-TOF. Here is the method:
Mass spectrometric analysis of HCV wild type or HCV variant C159S in the presence of test compound is performed. 100 pmols of HCV wild type (Bioenza, Calif.) is incubated with test compound for 1 hr and 3 hrs at 10-fold access of test compound to protein. 1 ul aliquots of the samples (total volume of 4.24 ul) are diluted with 10 ul of 0.1% TFA prior to micro C4 ZipTipping directly onto the MALDI target using Sinapinic acid as the desorption matrix (10 mg/mL in 0.1% TFA:Acetonitrile 50:50). Analyses are performed on a Shimadzu Biotech Axima TOF2 (Shimadzu Instruments) matrix-assisted-laser desorption/ionization Time-of-Flight (MALDI-TOF) mass spectrometer. The same procedure is carried out on 100 pmols of HCV C159S mutant of HCV protease for 3 hrs at 10-fold excess of test compound to protein.
As depicted in FIGS. 1 and 2, mass spectrometric analysis of HCV wild type in the presence of test compounds I-1 and I-25 was performed using the following protocol: HCV NS3/4A wild type (wt) was incubated for 1 hr at a 10× fold access of test compound to protein. 2 ul aliquots of the samples were diluted with 10 ul of 0.1% TFA prior to micro C4 ZipTipping directly onto the MALDI target using Sinapinic acid as the desorption matrix (10 mg/ml in 0.1% TFA:Acetonitrile 50:50). For intact protein mass measurement the instrument was set in linear mode using a pulsed extraction setting of 24,500 and apomyoglobin as the standard to calibrate the instrument.

Experiment [7] has as its system HCV RNA replicon in cell line ET (luc-ubi-neo/ET), human Huh7 hepatoma. As to the kind of experiment: HCV RNA replicon assay, Example 14 Method A. The conditions noted are these: Hepatitis C virus, Huh-7, assay of Example 14, 72 hr; for IC50: read-out: Inhibition, Replicon (IC50); for IC90: read-out: Inhibition, Replicon, IC90 value. Type of experiment: cell-based. The procedure:
The compounds were assayed to evaluate the antiviral activity and cytotoxicity of compounds in vitro using HCV RNA replicons. This assay used the cell line ET (luc-ubi-neo/ET), which is a human Huh7 hepatoma cell line that contains an HCV RNA replicon with a stable luciferase (Luc) reporter and three cell culture-adaptive mutations. […]
The ET cell line was grown in Dulbecco's modified essential media (DMEM), 10% fetal bovine serum (FBS), 1% penicillin-streptomycin (pen-strep), 1% glutamine, 250 μg/mL G418 in a 5% CO2 incubator at 37° C. All cell culture reagents were obtained from Mediatech (Manassas, Va.). Cells were trypsinized (1% trypsin:EDTA) and plated out at 5×10^3 cells/well in white 96-well assay plates (Costar) dedicated to cell number (cytotoxicity) or antiviral activity assessments. Drugs were added at six 3-fold concentrations each and the assay was run in DMEM, 5% FBS, 1% pen-strep, 1% glutamine. Human interferon alpha-2b (PBL Biolabs, New Brunswick, N.J.) was included in each run as a positive control compound. Cells were processed 72 hr post drug addition when the cells are still subconfluent. Antiviral activity was measured by analyzing replicon-derived luciferase activity using the Steady-Glo Luciferase Assay System (Promega, Madison, Wis.) according to manufacturer's instruction. The number of cells in each well was determined by CytoTox-1 reagent (Promega). Compound profile was derived by calculating applicable EC50 (effective concentration inhibiting virus replication by 50%), EC90 (effective concentration inhibiting virus replication by 90%), IC50 (concentration decreasing cell viability by 50%) and SI50 (selective index: […]) values.

For another experiment, the target named is HCV NS3/4A D168A (Hepatitis C virus genotype 1b, UniProt Q9WMX2, D1194A). As to the kind of experiment: Mass spectrometric analysis of covalent modification. Type of experiment: binding. The note with it: methods described in Example 18. Here is the method: HCV is incubated with test compound for 3 hrs prior to tryptic digestion. Todoacetamide is used as the alkylating agent after compound incubation. For tryptic digests a 2 ul aliquot (0.06 ug/ul) is diluted with 10 ul of 0.1% TFA prior to micro C18 Zip Tipping directly onto the MALDI target using alpha cyano-4-hydroxy cinnamic acid as the matrix (5 mg/mL in 0.1% TFA:Acetonitrile 50:50).
For tryptic digests the instrument is set in Reflectron mode with a pulsed extraction setting of 1800. Calibration is done using the Laser Biolabs Pep Mix standard (1046.54, 1296.69, 1672.92, 2093.09, 2465.20). For CID/PSD analysis the peptide is selected using cursors to set ion gate timing and fragmentation occurred at a laser power about 20% higher and He is used as the collision gas for CID. Calibration for fragments is done using the P14R fragmentation calibration for the Curved field Reflectron.
As depicted in FIGS. 4, 5, 6, and 7, mass spectrometric analysis of HCV mutants in the presence of compound I-11 was performed. […] 2 ul aliquots of the samples were diluted with 10 ul of 0.1% TFA prior to micro C4 ZipTipping directly onto the MALDI target using Sinapinic acid as the desorption matrix (10 mg/ml in 0.1% TFA:Acetonitrile 50:50). […]

Experiment [8] deals with T5, NS3 protease self-cleavage in Huh-7-Luc-Neo-ET replicon cells (Hepatitis C virus genotype 1b, UniProt Q9WMX2, E1202G/T1280I).
T5 construct: blotted with polyclonal anti NS3 antibody (Bioenza, Calif.)
The experiment is described as follows: Inhibition of protease self cleavage in replicon cells (washout). The conditions noted are these: 16 hours incubation, then removed. Type of experiment: cell-based. Here is the method: Huh-7-Luc-Neo-ET cells were plated in Replicon Assay Medium (RPMI supplemented with 5% FBS, 1× non-essential amino acids and pen/strep) at a density of 1×10^5 cells/well in 12 well plates. Eight hours later the media was removed and replaced with 1 ml media containing test compound (5 wells per compound) and 0.02% DMSO and the cells were returned to the incubator overnight. Sixteen hours later 1 well from each compound and 1 untreated well were washed with PBS, then lysed and scraped into 30 ul of Cell Extraction Buffer (Biosource, Camarillo, Calif.) plus Complete Protease Inhibitor (Roche, Indianapolis, Ind.). The remaining wells were rinsed 2× with PBS then fed with Replicon Media and returned to the incubator. […]
Cell lysates were separated by SDS-Page (4-20%) and transferred to Immobilon-P PVDF membrane (Millipore Corporation, MA) and blotted with polyclonal anti NS3 antibody (Bioenza, Calif.). Blots were scanned on an Odyssey infrared scanner from Licor and the FL band and cleavage products were quantified separately using the Licor software provided with the scanner. The cleavage product was calculated as a percentage of the total NS3 in each sample and then normalized to the DMSO control so that the DMSO control reflects 100% activity.
A general note: A replicon is a self-replicating genome or part of one, used to study replication in cells.

Consider `C=CC(=O)NCC(=O)N1C[C@H](OC(=O)N2Cc3cccc(F)c3C2)C[C@H]1C(=O)N[C@]1(C(=O)NS(=O)(=O)C2CC2)C[C@H]1C=C` [Compound I-6, (3R,5S)-1-(2-acrylamidoacetyl)-5-((1R,2S)-1-(cyclopropylsulfonylcarbamoyl)-2-vinylcyclopropylcarbamoyl)pyrrolidin-3-yl 4-fluoroisoindoline-2-carboxylate], for which the IC50 was < 10 nM in [1]; < 10 nM in experiment [2]; 10 to 100 nM in experiment [3]; < 10 nM in [4]; < 10 nM in experiment [5]; 100 to 1000 nM in experiment [6]. In [7], the IC50 was 100 to 1000 nM. Further, on HCV NS3/4A wild type, the “Covalent modification of HCV NS3/4A wild type” value is recorded as “measurable covalent modification”. Besides, the IC90 in experiment [7] fell in the range of 1000 to 10000 nM.

Take `C=C[C@@H]1C[C@]1(NC(=O)[C@@H]1C[C@@H](OC(=O)N2Cc3cccc(F)c3C2)CN1C(=O)CNC(=O)/C=C/C)C(=O)NS(=O)(=O)C1CC1` [Compound I-7, (3R,5S)-1-(2-(E)-but-2-enamidoacetyl)-5-((1R,2S)-1-(cyclopropylsulfonylcarbamoyl)-2-vinylcyclopropylcarbamoyl)pyrrolidin-3-yl-4-fluoroisoindoline-2-carboxylate]: the IC50 in experiment [1] lay within 10 to 100 nM; in experiment [3], 1000 to 10000 nM; in experiment [4], 100 to 1000 nM; in experiment [5], 100 to 1000 nM; in experiment [6], 1000 to 10000 nM.

In the case of `C=CC(=O)NC[C@H](NC(=O)OC1CCCC1)C(=O)N1C[C@H](OC(=O)N2Cc3cccc(F)c3C2)C[C@H]1C(=O)N[C@]1(C(=O)NS(=O)(=O)C2CC2)C[C@H]1C=C` [Compound I-19, (3R,5S)-1-((S)-3-acrylamido-2-(cyclopentyloxycarbonylamino)propanoyl)-5-((1R,2S)-1-(cyclopropylsulfonylcarbamoyl)-2-vinylcyclopropylcarbamoyl)pyrrolidin-3-yl 4-fluoroisoindoline-2-carboxylate], on HCV NS3/4A D168A, the “Covalent modification of HCV NS3/4A D168A” value is on record as “measurable covalent modification”. Moreover, the IC50 in experiment [4] is < 10 nM; in experiment [5], < 10 nM; in [6] it was 10 to 100 nM. The “Covalent modification of HCV NS3/4A wild type” value on HCV NS3/4A wild type is recorded as “measurable covalent modification”.

Regarding `C=CC(=O)O[C@H](C)[C@H](NC(=O)OC(C)(C)C)C(=O)N1C[C@H](OC(=O)N2Cc3cccc(F)c3C2)C[C@H]1C(=O)N[C@]1(C(=O)NS(=O)(=O)C2CC2)C[C@H]1C=C` [Compound I-24, (3R,5S)-1-((2S,3R)-3-(acryloyloxy)-2-(tert-butoxycarbonylamino)butanoyl)-5-((1R,2S)-1-(cyclopropylsulfonylcarbamoyl)-2-vinylcyclopropylcarbamoyl)pyrrolidin-3-yl 4-fluoroisoindoline-2-carboxylate], at HCV NS3/4A D168A, the “Covalent modification of HCV NS3/4A D168A” value is given as “measurable covalent modification”. The IC50 in [4] is < 10 nM; in experiment [5], < 10 nM; in [6], < 10 nM; in experiment [7], 10 to 100 nM. For the same compound, on HCV NS3/4A wild type, the “Covalent modification of HCV NS3/4A wild type” value is “measurable covalent modification”. The IC90 in experiment [7] is 100 to 1000 nM.

Regarding `CCC[C@H](NC(=O)[C@@H]1[C@H]2CCC[C@H]2CN1C(=O)[C@@H](NC(=O)[C@@H](NC(=O)c1cnccn1)C1CCCCC1)C(C)(C)C)C(=O)C(=O)NC1CC1` [VX-950], the “Time to virtually complete return of NS3 self-cleaving activity after drug removal” value in [8] was 4 h and 8 h.

For the origin of these results see US8293705B2, “HCV protease inhibitors and uses thereof” (Avila Therapeutics, Inc., priority 2007, dated 2012).
